Laboratory results as given in ChEMBL document CHEMBL1201862, “PubChem BioAssay data set” (2004).
Active and inactive are the calls of the source.

Experiments:
[1] = Luminescence Cell-Based Dose Retest to Confirm Inhibitors of Cancer Stem Cells. [Related pubchem assays (depositor defined):AID2717, AID2721]; format: functional; conditions: Homo sapiens
Vero = experiment: cells; format: functional; conditions: Chlorocebus sabaeus
[2] = viability of PTEN-deleted HCT116 cells – cell-based, HCT116 PTEN knockout, dose response (AID 1047); format: functional;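 further: HCT116 colon tumor cells with PTEN knocked out; cells exposed to compound for 60 hours before readout; potency for loss of cell viability measured by luminescence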
[3] = viability of HCT116 lacking mutant beta-catenin – cell-based, human colon tumor, dose response (AID 1045); format: functional;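 further: HCT116 colon tumor cells with beta catenin knocked out; cells exposed to compound for 60 hours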
[4] = Counterscreen for inhibitors of Trypanosoma brucei methionyl tRNA synthetase (MetRS): Luminescence-based cell-based high throughput dose response assay to identify compounds that are cytotoxic to Jurkat human T lymphocyte cells.; format: functional
[5] = target: T1, Methionyl-tRNA synthetase, putative (Trypanosoma brucei brucei, UniProt Q38C91); format: functional, Trypanosoma brucei brucei strain 927/4 GUTat10.1
T1 sequence (Q38C91 whole entry): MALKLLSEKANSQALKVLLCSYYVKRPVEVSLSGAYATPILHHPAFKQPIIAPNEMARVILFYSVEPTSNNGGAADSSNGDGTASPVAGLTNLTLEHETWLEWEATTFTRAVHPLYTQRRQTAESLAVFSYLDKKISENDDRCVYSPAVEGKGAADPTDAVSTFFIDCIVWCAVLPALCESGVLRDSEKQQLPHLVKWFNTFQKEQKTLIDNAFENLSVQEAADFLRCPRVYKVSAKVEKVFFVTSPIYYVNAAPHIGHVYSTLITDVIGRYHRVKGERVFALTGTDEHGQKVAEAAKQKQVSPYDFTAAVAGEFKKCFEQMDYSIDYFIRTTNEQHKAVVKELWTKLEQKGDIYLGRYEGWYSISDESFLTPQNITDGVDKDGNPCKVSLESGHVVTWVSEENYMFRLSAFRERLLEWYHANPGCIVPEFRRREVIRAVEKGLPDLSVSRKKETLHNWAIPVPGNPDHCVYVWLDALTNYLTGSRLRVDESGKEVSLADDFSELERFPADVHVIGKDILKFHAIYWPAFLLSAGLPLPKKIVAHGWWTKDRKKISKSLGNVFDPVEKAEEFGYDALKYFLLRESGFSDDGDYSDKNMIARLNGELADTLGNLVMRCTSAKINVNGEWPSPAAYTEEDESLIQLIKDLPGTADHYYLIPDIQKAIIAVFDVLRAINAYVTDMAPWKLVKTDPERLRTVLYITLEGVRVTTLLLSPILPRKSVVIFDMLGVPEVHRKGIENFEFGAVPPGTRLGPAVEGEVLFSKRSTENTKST

[6] = target: T1, Methionyl-tRNA synthetase, putative; format: functional, Trypanosoma brucei brucei strain 927/4 GUTat10.1; remark: listed apart in the source
Prothrombin = Prothrombin (Homo sapiens, UniProt P00734); experiment: Thrombin 1536 HTS Dose Response Confirmation. [Related pubchem assays: 1046 (Thrombin 1536 HTS; hits were confirmed in this assay)]; format: functional
[7] = system: Streptococcus sp. 'group A'; experiment: Streptococcus pyogenes SK(-)GAS viability under kanamycin – luminescence, BacTiterGlo, confirmation, counter-screen for streptokinase expression inhibitor project, dose response (AID 1900); format: functional, organism-based
[8] = Trypanosoma cruzi growth suppression in host cells – NIH3T3 host cells, beta-gal luminescence, confirmation (AID 2044); format: functional, cell-based;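 further: intracellular parasites grown in NIH/3T3 mouse fibroblasts as host cells; luminescent beta-galactosidase reporter signal from transgenic T. cruzi replicating inside host cells; inhibitors lower the luminescence signal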
[9] = NIH3T3 cell viability loss – ATP luminescence, mouse fibroblasts, counter-screen, dose response (AID 2010); format: functional, cell-based;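 further: cells exposed to compound for about 90 hours before reading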
Streptococcus = experiment: GAS UMAA2166 growth inhibition – luminescence, BacTiterGlo, counter-screen for streptokinase expression inhibitor project, dose response (AID 1915); format: functional, organism-based;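 further: potency for reduction of bacterial viability or growth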
[10] = HIV-1 AD8 envelope cell-cell fusion blockers – cherry-pick, dose response (AID 652062); format: functional, cell-based;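 further: luciferase signal from cell-cell fusion driven by HIV-1 clade B AD8 Env; potency is for inhibitors of fusion seen as a drop in luminescence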
[11] = off-target signal loss in HeLa-CEM21 co-culture – HeLa F-luc CTL cells, cherry-picked, counter-screen for HIV-1 Env fusion inhibitor project, dose response (AID 652040); format: functional, cell-based;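 further: potency for signal decrease marking cytotoxic or nonspecific inhibition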
cells [12] = format: functional, cell-based
cells [13] = format: functional, cell-based; remark: listed apart in the source
[14] = target: T2, DNA repair protein RAD52 homolog (Homo sapiens, UniProt P43351); format: functional, biochemical
T2 sequence (P43351 whole entry): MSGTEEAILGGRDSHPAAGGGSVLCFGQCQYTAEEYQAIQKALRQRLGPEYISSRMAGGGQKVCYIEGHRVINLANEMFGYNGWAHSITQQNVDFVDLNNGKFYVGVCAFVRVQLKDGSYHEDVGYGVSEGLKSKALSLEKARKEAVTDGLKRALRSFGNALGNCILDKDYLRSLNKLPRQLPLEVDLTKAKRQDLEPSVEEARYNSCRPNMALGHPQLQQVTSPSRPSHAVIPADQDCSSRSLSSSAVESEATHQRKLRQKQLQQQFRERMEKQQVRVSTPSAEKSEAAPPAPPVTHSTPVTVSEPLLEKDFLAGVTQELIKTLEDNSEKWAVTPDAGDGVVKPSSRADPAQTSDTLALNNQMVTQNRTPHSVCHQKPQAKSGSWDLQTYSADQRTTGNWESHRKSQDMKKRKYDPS

[15] = blockers of HIV-1 ZM109 envelope-driven cell-cell fusion – HeLa effector, CEM target cells, luciferase, cherry-pick, dose response (AID 652058); format: functional, cell-based;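 further: luciferase signal from HIV-1 Env mediated cell-cell fusion of effector and target cells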
[16] = blockers of HIV-1 envelope-mediated cell-cell fusion – cherry-pick, dose response (AID 652057); format: functional, cell-based
[17] = A549 cell cytotoxicity, dose response, cytotoxicity control, plate reader, cherry-pick, antagonist series (AID 743412); format: functional, cell-based
[18] = toxicity toward HepG2 liver cells – cell-based, plate reader, cherry-pick, antagonist series, cytotoxicity control, dose response (AID 743416); format: functional
[19] = viability loss in HEK293 cells – cell-based, plate reader, cherry-picked samples, cytotoxicity control, dose response (AID 743446); format: functional
[20] = target: FAD-linked sulfhydryl oxidase ALR (Homo sapiens, UniProt P55789); experiment: ALR-catalysed DTT oxidation blockers – biochemical, H2O2 detection, luminescence, cherry-pick, dose response (AID 493248)
Large T antigen = Large T antigen (Simian virus 40, UniProt P03070); format: functional, Betapolyomavirus macacae;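 further: Confirmatory-stage PubChem screen for compounds that inhibit SV40 T antigen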
Cytochrome P450 3A4 = Cytochrome P450 3A4 (Homo sapiens, UniProt P08684); conditions: Potency;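 further: confirmatory qHTS run detecting inhibitors and substrates of CYP3A4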
[21] = Luminescence Cell-Based Dose Confirmation HTS to Identify Activators of 5'UTR Stem-Loop Driven Alpha-Synuclein mRNA Translation in H4 Neuroglioblastoma Cells. [Related pubchem assays: 1829 (Project Summary), 1814 (Primary HTS)]; format: functional
H4 = experiment: Luminescence Cell-Based Dose Response HTS to Identify Activators of 5'UTR Stem-Loop Driven Prion Protein mRNA Translation in H4 Neuroglioblastoma Cells. [Related pubchem assays: 1829 (Project Summary), 1814 (Primary HTS)]; format: functional; conditions: Homo sapiens
[22] = Luminescence Cell-Based Dose Response HTS to Identify Activators of Luciferase Translation or Activity in H4 […] Cells. [Related pubchem assays: 1829 (Project Summary), 1814 (Primary HTS)]; format: functional

Cytochrome P450 3A4, sequence (P08684 whole entry): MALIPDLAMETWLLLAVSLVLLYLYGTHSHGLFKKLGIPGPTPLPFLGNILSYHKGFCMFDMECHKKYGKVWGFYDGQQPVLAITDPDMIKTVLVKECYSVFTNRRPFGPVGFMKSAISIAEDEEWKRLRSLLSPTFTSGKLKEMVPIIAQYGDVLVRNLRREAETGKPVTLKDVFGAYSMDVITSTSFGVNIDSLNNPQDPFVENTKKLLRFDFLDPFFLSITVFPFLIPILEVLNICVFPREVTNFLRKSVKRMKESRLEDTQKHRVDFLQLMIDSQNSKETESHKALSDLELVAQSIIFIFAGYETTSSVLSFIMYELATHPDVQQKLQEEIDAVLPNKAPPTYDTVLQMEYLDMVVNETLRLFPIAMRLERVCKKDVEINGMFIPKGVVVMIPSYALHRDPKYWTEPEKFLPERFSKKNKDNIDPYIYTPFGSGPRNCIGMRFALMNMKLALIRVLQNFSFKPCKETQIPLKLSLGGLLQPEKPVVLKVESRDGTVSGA
Large T antigen, sequence (P03070 whole entry): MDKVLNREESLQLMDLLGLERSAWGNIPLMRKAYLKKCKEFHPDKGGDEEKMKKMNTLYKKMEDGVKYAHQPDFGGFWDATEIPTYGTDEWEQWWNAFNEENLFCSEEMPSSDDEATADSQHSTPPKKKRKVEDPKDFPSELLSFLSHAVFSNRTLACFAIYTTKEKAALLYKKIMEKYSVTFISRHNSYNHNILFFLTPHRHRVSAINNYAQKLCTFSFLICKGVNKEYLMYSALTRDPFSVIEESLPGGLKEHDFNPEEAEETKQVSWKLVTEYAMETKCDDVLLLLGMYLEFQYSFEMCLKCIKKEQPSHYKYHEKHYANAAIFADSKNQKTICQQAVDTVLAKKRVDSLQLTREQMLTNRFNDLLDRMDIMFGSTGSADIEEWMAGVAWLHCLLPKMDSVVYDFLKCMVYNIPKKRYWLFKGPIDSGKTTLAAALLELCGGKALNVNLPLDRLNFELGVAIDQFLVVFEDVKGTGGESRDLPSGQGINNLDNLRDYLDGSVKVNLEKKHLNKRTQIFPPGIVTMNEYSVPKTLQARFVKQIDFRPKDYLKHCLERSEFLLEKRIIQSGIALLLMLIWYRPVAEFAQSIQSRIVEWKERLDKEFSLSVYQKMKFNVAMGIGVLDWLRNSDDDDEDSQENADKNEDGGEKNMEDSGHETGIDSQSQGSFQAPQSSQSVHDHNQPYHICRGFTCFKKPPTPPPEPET
FAD-linked sulfhydryl oxidase ALR, sequence (P55789 whole entry): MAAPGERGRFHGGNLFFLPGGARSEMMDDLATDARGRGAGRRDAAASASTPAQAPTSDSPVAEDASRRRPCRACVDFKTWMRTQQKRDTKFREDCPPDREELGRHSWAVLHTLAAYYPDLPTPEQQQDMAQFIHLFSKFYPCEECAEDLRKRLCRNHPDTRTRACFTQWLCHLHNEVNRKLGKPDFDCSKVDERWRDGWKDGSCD

## COc1ccc(C)cc1N1C(=O)C(c2ccccc2)C(c2nc3ccccc3s2)=C1N (configuration not stated)
[1]
  AC50: 4.88 µM (active)
Vero
  CC50: 6.15 µM (active)
[2]
  EC50: 3.06 µM (active)
[3]
  EC50: 2.48 µM (active)

## OC(c1cc(F)cc(Cl)c1)c1nc(-c2ccc(Cl)cc2)c[nH]1 (configuration not stated)
[4]
  IC50: 56.3 µM (inactive)
[5]
  IC50: 6.73 µM (active)
[6]
  IC50: 15 µM (inactive)

## COc1ccccc1NC(=O)N1CCCC1C(=O)NC1CCCCC1 (configuration not stated)
Prothrombin
  IC50: > 50 µM (not active)

## COc1ccccc1/C=C/c1ccc2cccc(O)c2n1
Vero
  CC50: > 25 µM (active)
[7]
  EC50: 1.52 µM (active)
[8]
  EC50: 2.74 µM (active)
[9]
  EC50: > 60 µM (not active)
Streptococcus
  EC50: 6 µM (active)

## O=C(Nc1ccc(CN2CCS(=O)(=O)CC2)cc1)c1ccc(C(F)(F)F)cc1
[10]
  AC50: 3.22 µM (active)
[11]
  AC50: > 70 µM (inactive)

## O=C(CNC(=O)c1ccccc1F)OCC(=O)c1c[nH]c2ccccc12
Cells [12]
  IC50: > 29.9 µM (inactive)
Cells [13]
  EC50: > 29.9 µM (inactive)

## NCc1cc2c3c(c1)CCCN3CCC2
[14]
  AC50: 1.92 µM (active)

## CC1CCN(S(=O)(=O)c2cc(C(=O)N3CCN(c4ccccc4)CC3)ccc2Br)CC1
[15]
  AC50: 3.22 µM (active)
[16]
  AC50: 40.3 µM (active)
[10]
  AC50: 4.92 µM (active)

## CCN1C(=O)C(CC(=O)Nc2ccc(OC)cc2)N(CCc2ccc(F)cc2)C1=S (configuration not stated)
[4]
  IC50: 61.1 µM (inactive)
[5]
  IC50: 6.2 µM (active)
[6]
  IC50: 11.4 µM (inactive)

## CCN(CC)CCCNC(=O)c1csc(Nc2cccc3ccccc23)n1
[14]
  AC50: 21.9 µM (active)

## COc1ccccc1N1CCN(C(=O)c2sc3nc(-c4ccc(F)cc4)cn3c2C)CC1
[17]
  AC50: > 52 µM (inactive)
[18]
  AC50: 43.3 µM (active)
[19]
  AC50: 37.1 µM (active)

## CC(Cc1ccccc1)NC(=O)/C=C/C(=O)O (configuration not stated)
Cells [12]
  IC50: > 29.9 µM (inactive)
Cells [13]
  EC50: > 29.9 µM (inactive)

## Cc1cc2nc(-c3ccc(SCC(=O)Nc4nccs4)nc3)[nH]c2cc1C
[2]
  EC50: 19.6 µM (active)
[3]
  EC50: 33.3 µM (active)

## NC(=O)Nc1ccc(Nc2ccccc2)cc1
[20]
  AC50: 0.916 µM (active)
Large T antigen
  IC50: 7.83 µM (active)

## COc1cccc(S(=O)(=O)N(C)C[C@@H]2Oc3cc(C#CCC(C)C)ccc3S(=O)(=O)N([C@@H](C)CO)C[C@@H]2C)c1
[15]
  AC50: 46.1 µM (active)
[16]
  AC50: 20 µM (active)
[10]
  AC50: 25.7 µM (active)

## CC(C)N(Cc1nc(-c2ccccc2)no1)C(=O)CN(C)S(=O)(=O)c1ccc(Br)cc1
[16]
  AC50: 49.9 µM (active)
[10]
  AC50: 20.1 µM (active)
[11]
  AC50: 60.4 µM (active)

## O=C(CNC(=O)OCc1ccccc1)Nc1ccc(Br)cc1C(=O)c1ccccc1Cl
[2]
  EC50: 44.5 µM (active)
[3]
  EC50: 45.4 µM (active)

## COc1ccc(C2C=C(c3ccc(Br)cc3)Nc3nc(N4C(=O)CCC4=O)nn32)cc1 (configuration not stated)
Prothrombin
  IC50: > 50 µM (not active)

## Cc1ccc(CNC(=O)CSc2n[nH]c3c4cc(F)ccc4nc-3n2)cc1
[4]
  IC50: 83.3 µM (inactive)
[5]
  IC50: 0.785 µM (active)
[6]
  IC50: 119 µM (inactive)

## CC(C)CC#Cc1ccc2c(c1)O[C@@H](CN(C)S(=O)(=O)c1cccc(F)c1)[C@@H](C)CN([C@@H](C)CO)S2(=O)=O
[15]
  AC50: 8.81 µM (active)
[16]
  AC50: 7.21 µM (active)
[10]
  AC50: 11.6 µM (active)

## C#CCSc1nncn1C(=O)/C=C/c1ccccc1
Prothrombin
  IC50: 0.294 µM (active)

## CSCc1nc2scc(-c3ccccc3)c2c(=O)[nH]1
Prothrombin
  IC50: > 50 µM (not active)

## COC(=O)c1cccc(C23CC4(C2)[C@H](CN(Cc2ccc(C(F)(F)F)cc2)[C@@H]4c2ccccc2)C3c2ccc(C(F)(F)F)cc2)c1 (some centres not stated)
Cytochrome P450 3A4
  AC50: 12.6 µM (inconclusive)

## Cc1cc(C(=O)CSc2nnnn2C)c(C)n1-c1cccc(F)c1
Prothrombin
  IC50: > 50 µM (not active)

## CC(C)(C)[C@H]1C=C(C(=O)NCc2nc3ccccc3[nH]2)O[C@@H](OCCCCO)C1
[4]
  IC50: 83.3 µM (inactive)
[5]
  IC50: 2.63 µM (active)
[6]
  IC50: 6.66 µM (active)

## N=C(N)N/N=C/c1ccc(OCc2ccccc2Cl)cc1
[2]
  EC50: 4.14 µM (active)
[14]
  AC50: 16.6 µM (active)
[8]
  EC50: 0.539 µM (active)
[3]
  EC50: 4.04 µM (active)
[9]
  EC50: > 60 µM (not active)

## Cc1cc(C(=O)COc2cccc(-n3cnnn3)c2)c(C)n1-c1ccccc1
[2]
  EC50: 48.3 µM (active)
[3]
  EC50: 77.4 µM (active)

## Sc1nnc(COc2ccccc2)n1/N=C/C(Cl)=C/c1ccccc1
[1]
  AC50: 2.32 µM (active)
Vero
  CC50: > 25 µM (active)
[21]
  EC50: 6.85 µM (active)
H4
  EC50: > 120 µM (not active)
[22]
  EC50: 12.6 µM (active)

## Cc1ccccc1CCN(C(=O)c1csnn1)C(C(=O)NC1CCCC1)c1ccncc1 (configuration not stated)
[15]
  AC50: 0.742 µM (active)
[16]
  AC50: 0.548 µM (active)
[10]
  AC50: < 0.26 µM (active)
[11]
  AC50: 1.13 µM (active)

## Cc1c(N)cccc1N
Cytochrome P450 3A4
  AC50: 15.8 µM (inconclusive)

## C[C@H](CO)N1C[C@H](C)[C@H](CN(C)S(=O)(=O)c2ccccc2F)Oc2ncc(/C=C/c3ccccc3)cc2C1=O
[15]
  AC50: 10.2 µM (active)
[16]
  AC50: 3.51 µM (active)
[10]
  AC50: 10.1 µM (active)

## O=C(Nc1ccc(O)cc1)c1ccc(NC(=O)C2CCCO2)cc1 (configuration not stated)
Large T antigen
  IC50: 11.1 µM (active)
